The supplement of paper PMC6045584

Legend:
Experiment in all cases: area under dose-response curve of surviving fraction (unscaled, Aref=0) (surviving fraction x log10(nM)); higher = more resistant
Conditions in all cases: exposure time: 5 days; dose range 0.5-1000 nM
MK-1775 = compound: C=CCn1c(=O)c2cnc(Nc3ccc(N4CCN(C)CC4)cc3)nc2n1-c1cccc(C(C)(C)O)n1 [MK-1775]
Outline: (§1)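 Tumour cell lines in 384-well plates were exposed to eight inhibitor concentrations, from 0.5 to 1000 nM, for five days, and viability was read by CellTiter-Glo luminescence in three screens per line. Signals were normalised to DMSO-only wells, and 3-parameter logistic regression in the drc R package fitted dose-response survival curves to the surviving fractions. Area under the curve is given as the unscaled activity area. That area is taken over log10 dose with Aref = 0.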

AFIMOXIFENE = compound: CC/C(=C(\c1ccc(O)cc1)c1ccc(OCCN(C)C)cc1)c1ccccc1 [AFIMOXIFENE]
Outline: as §1

[1] = compound: CCc1cc(Nc2nccc(-c3c(-c4ccc(OC)c(C(=O)Nc5c(F)cccc5F)c4)nc4ccccn34)n2)c(OC)cc1N1CCC(N2CCN(S(C)(=O)=O)CC2)CC1
Outline: as §1

CABOZANTINIB = compound: COc1cc2nccc(Oc3ccc(NC(=O)C4(C(=O)Nc5ccc(F)cc5)CC4)cc3)c2cc1OC [CABOZANTINIB]
Outline: as §1

[2] = compound: COc1ccc(-c2cc3c(C)nc(N)nc3n([C@H]3CC[C@H](OCCO)CC3)c2=O)cn1
Outline: as §1

[3] = compound: C[C@@H]1CN(CC(=O)Nc2ccc3c(c2)Cc2cccc(-c4cc(=O)cc(N5CCOCC5)o4)c2S3)C[C@H](C)O1
Outline: as §1

[4] = compound: C[C@H](CN(C)C)Oc1nc(Nc2cc3cccc(Cl)c3cn2)cnc1C#N
Outline: as §1

BLEOMYCIN = compound: Cc1c(N)nc([C@H](CC(N)=O)NC[C@H](N)C(N)=O)nc1C(=O)N[C@H](C(=O)N[C@H](C)[C@@H](O)[C@H](C)C(=O)N[C@H](C(=O)NCCc1nc(-c2nc(C(=O)NCCC[S+](C)C)cs2)cs1)[C@@H](C)O)[C@@H](OC1OC(CO)C(O)C(O)C1OC1OC(CO)C(O)C(OC(N)=O)C1O)c1cnc[nH]1 [BLEOMYCIN]
Outline: as §1

IMATINIB = compound: Cc1ccc(NC(=O)c2ccc(CN3CCN(C)CC3)cc2)cc1Nc1nccc(-c2cccnc2)n1 [IMATINIB]
Outline: as §1

NILOTINIB = compound: Cc1cn(-c2cc(NC(=O)c3ccc(C)c(Nc4nccc(-c5cccnc5)n4)c3)cc(C(F)(F)F)c2)cn1 [NILOTINIB]
Outline: as §1

BEZ-235 = compound: Cn1c(=O)n(-c2ccc(C(C)(C)C#N)cc2)c2c3cc(-c4cnc5ccccc5c4)ccc3ncc21 [BEZ-235]
Outline: as §1

BMN-673 = compound: Cn1ncnc1[C@H]1c2n[nH]c(=O)c3cc(F)cc(c23)N[C@@H]1c1ccc(F)cc1 [BMN-673]
Outline: as §1

LENVATINIB = compound: COc1cc2nccc(Oc3ccc(NC(=O)NC4CC4)c(Cl)c3)c2cc1C(N)=O [LENVATINIB]
Outline: as §1

VORINOSTAT = compound: O=C(CCCCCCC(=O)Nc1ccccc1)NO [VORINOSTAT]
Outline: as §1

| Test System | area under dose-response curve (MK-1775) | area under dose-response curve (AFIMOXIFENE) | area under dose-response curve [1] | area under dose-response curve (CABOZANTINIB) | area under dose-response curve [2] | area under dose-response curve [3] | area under dose-response curve [4] | area under dose-response curve (BLEOMYCIN) | area under dose-response curve (IMATINIB) | area under dose-response curve (NILOTINIB) | area under dose-response curve (BEZ-235) | area under dose-response curve (BMN-673) | area under dose-response curve (LENVATINIB) | area under dose-response curve (VORINOSTAT) |
| --- | --- | --- | --- | --- | --- | --- | --- | --- | --- | --- | --- | --- | --- | --- |
| SUM149 BREAST | 2.21 | 3.16 | 3.6 | 3.18 | 2.28 | 3.07 | 2.65 | 1.44 | 3.23 | 2.88 | 2.39 | 0.994 |  |  |
| SUM44 BREAST | 2.54 |  |  | 4.12 | 2.6 | 3.07 | 2.65 | 3.07 |  | 3.21 | 2.29 | 3.29 | 3.41 | 2.88 |
| BT549 BREAST | 2.27 | 3.21 | 3.58 | 3.6 | 2.15 | 2.89 | 2.68 | 1.6 | 3.76 | 3.42 | 2.29 | 2.53 | 3.7 |  |
| YAMATO SYNOVIAL |  | 4.25 | 4.39 | 2.65 | 2.19 |  |  | 3.25 |  |  | 2.84 | 2.65 |  |  |
| SJSA1 BONE | 2.86 |  | 3.48 | 5.44 | 2.46 | 3.26 | 5.38 | 2.25 |  | 5.57 | 2.51 | 4.84 | 3.51 | 2.78 |
| SCC90 HEADNECK | 2.22 |  | 3.49 | 3.14 | 2.3 |  | 2.62 | 3.23 | 3.71 |  | 2.68 | 3.31 | 3.91 |  |
| KPD BONE | 2.7 | 3.52 | 3.24 | 3.33 | 1.97 | 3.21 | 2.98 | 2.48 | 3.49 | 3.25 | 2.12 | 1.92 |  |  |
| SG32 HEADNECK | 2.43 |  | 3.97 | 3.26 | 2.95 | 3.15 |  | 2.56 | 3.6 | 3.05 | 2.45 | 3.1 | 3.96 | 3.07 |
| MDAMB157 BREAST | 2.07 |  | 3.26 | 3.09 | 2.35 | 3.25 | 2.75 | 2.5 |  | 3.49 | 2.72 | 2.09 | 3.03 | 3.15 |
| HCC1395 BREAST | 3.14 | 3.9 | 3 | 3.98 | 2.91 | 3.09 |  | 2.73 | 4.07 | 3.22 | 3.18 | 2.84 | 3.23 | 3.8 |
| MG63 BONE | 2.87 |  | 3.27 | 3.04 | 2.06 | 3.46 | 3.49 | 2.35 | 3.51 | 3.81 | 2.27 | 2.31 | 2.98 | 3.43 |
| HOSMNG BONE | 2.85 | 3.26 | 3.35 | 2.68 | 2.74 | 3.27 | 3.22 |  | 3.46 | 3.21 | 2.74 | 3.19 | 3.46 |  |
| C33A CERVIX | 2.33 | 3.76 | 2.94 | 2.65 | 2.1 | 3.44 | 3 | 2.02 | 3.47 | 3.63 | 2.24 | 1.82 | 3.26 |  |
| BT20 BREAST | 2.77 | 4.62 |  | 3.73 | 2.52 |  | 4.01 | 2.25 | 4.15 | 3.28 | 2.35 | 2.9 | 3.71 |  |
| SG27 HEADNECK |  | 3.58 | 3.63 |  | 2.65 | 3.35 | 3.57 | 3.29 | 3.66 | 3.63 | 3.01 |  | 3.51 |  |
| HCC1806 BREAST | 2.16 |  | 3.26 | 3.61 | 2.72 | 3.06 | 2.4 | 1.54 | 3.65 | 2.94 | 2.63 | 1.26 | 3.49 | 3 |
| MFM223 BREAST | 2.48 | 3.79 | 3.77 | 3.65 | 2.27 | 3.36 |  | 2.64 | 3.93 | 3.16 | 2.45 | 3 | 2.7 | 3.21 |
| MDAMB468 BREAST | 2.87 | 3.58 | 3.5 | 3.58 | 2.59 | 3.17 | 3.03 | 3.15 | 3.53 | 3.07 | 2.83 | 2.09 | 3.61 |  |
| NCIH441 LUNG | 2.78 | 3.62 | 3.27 | 3.29 | 2.77 | 3.5 |  | 2.86 | 3.69 |  | 3.03 | 2.71 | 3.46 | 3.23 |
| CADOES1 SOFT TISSUE | 2.76 |  | 3.13 | 3.02 | 2.15 | 3.25 | 2.48 | 2.17 | 3.08 |  | 2.12 | 1.72 | 2.86 | 2.16 |
